Measurements published in patent US4749798A, “Fluoro coumarins as antilymphoedema agents” (priority 1984, dated 1988).
Entries after “also recorded” stand apart in the source; their conditions may differ.

Experiments:
S. Pombae = assay: forward mutation in S. Pombae; type: cell-based
[1] = system: carrageenan induced edema of the rats hind paw; assay: carrageenan induced edema of the rat hind paw; type: in vivo
Description: 6-fluoro coumarin and the compounds of the invention are also effective in the management of the acute inflammation.
The carrageenan edema test proposed by Winter C. A., Risley A., Noss G. W. (Proc. Soc. Exp. Biol., 101, 544, 1962) was used.
The compounds, administered i.p. 30' before the carrageenan as suspension in 1% aqueous carboxymethylcellulose homogeneized by ultrasounds, were compared with coumarin at different dose-levels on 6 animal groups. The percent reduction of the rat hind paw edema was evaluated at different times.

[2] = system: burning induced oedema of hind paws; assay: burning induced oedema test; type: in vivo, Sprague-Dawley male rats; settings: 50 mg/kg
Procedure: Reduction of the burning induced oedema test has been also used to evidentiate the antiinflammatory activity and the proteolytic mechanism of action of the compounds of the invention. 18 hours-fasted Sprague-Dawley male rats, body weight: 170-220 g, are used in this testing procedure. The animals are divided into five animal groups and the volume (in ml) of the posterior hind paws is measured before these paws are burnt by immersion for 22 seconds in 55° C. heated water. 15 minutes after burning, the animals are treated, by oral route, with different dosages of the investigated compounds and placebo. The volume of paws is measured 6, 12 and 18 hours after burning and the increased volume of the paws is evaluated.

[3] = system: blood-dot area in right ear; assay: re-absorption of citrated blood injected in the rabbit ear (blood-dot area); type: in vivo, New Zealand rabbits; settings: 50 mg/kg pro die, oral; placebo 20.3
Procedure: Finally, the compounds of the invention are able to induce re-absorption of the total citrated blood when blood is injected in the right ear of New Zealand rabbits. 12 hours after blood inoculation into ear, the animal were randomized and treated with scalar doses of the investigated compounds administered for 4 days by oral route. The blood-dot areas are evaluated and compared with the areas of the control animals treated with placebo only. In table 5 are reported some experimental results.

coagulation factors = assay: coagulation parameters (DPTT, Hepato quick, clotting time); type: in vivo; settings: in vivo, po
[4] = Occupational Safety and Health Administration; cited from earlier work
[5] = cited from earlier work
coagulation = settings: Schofield; Feuer et al.; cited from earlier work
[6] = system: S. typhimurium (TA 1535, TA 1537, TA 1538, TA 98, TA 100); settings: cited from earlier work
[7] = system: mouse peritoneal macrophages; assay: proteolysis by mouse peritoneal macrophages; settings: at the higher doses; coumarin at similar doses
Description: Ability of the 6-fluoro coumarin itself, and the other compounds of the invention, to increase proteolysis by mouse peritoneal macrophages is shown by using the testing procedure reported by T. Bolton and J. R. Casley-Smith, Experimentia, 31, 275 (1975).
Due to the great standard error, many replications are necessary in order to obtain reliable dose-response curves.

[8] = metabolism after oral administration to rabbits, analysis of faeces and urines over 24 hours; settings: rabbit, coumarin in similar experimental conditions
Procedure: In a second experiment, C^14 -labelled 6-fluoro coumarin was administered by oral route to rabbits and faeces and urines were collected during a period of 24 hours. As it is usual for metabolic studies, the excreta were treated by β-glucoronidase and aryl sulfatase and extracted by methylene chloride in a little acid medium. […] In these studies, labelled 6-fluoro coumarin having a 1 Ci/mole specific radioactivity was used.

O=c1ccc2ccccc2o1 [coumarin, 2H-1-benzopyran-2-one]
effects in forward mutation test (S. Pombae): positive responder
% Reduction of the edema by carrageenan ([1]; 1.55 mg/kg i.p., 3 h): 23%
% Reduction of the edema by carrageenan ([1]; 3.12 mg/kg i.p., 3 h): 53%
% Reduction of the edema by carrageenan ([1]; 3.12 mg/kg i.p., 5 h): 53.4%
% Reduction of the edema by carrageenan ([1]; 6.25 mg/kg i.p., 3 h): 78%
inhibition [2]: 35%
times less active than 6-fluoro coumarin [2]: about 2 times
% reduction of blood-dot area after 4 days [3]: 67.31%
effect on Hepato quick (coagulation factors): moderately influences Hepato quick (in decreasing way)
effects in mitotic genic conversion test (S. cerevisiae): positive responder
effects in gene mutation test (somatic mammalian cells): positive responder
carcinogen category [4]: category I carcinogen
metabolism in man [5]: extensively metabolized in man upon first pass through the liver; also recorded: C-3 hydroxylation practically absent in man
anticoagulant activity (coagulation): anticoagulant activites
mutagenicity [6]: weak mutagenic substance
increase in proteolysis [7]: 2.2 fold
metabolism (hydroxylation / lactone ring opening) [8]: metabolized by hydroxylation and also by δ-lactone ring opening; also recorded: metabolized by hydroxylation and by δ-lacton ring opening
